Measured values published in BigSolDB 2.1.

Cc1cccc(N(C)C(=S)Oc2ccc3ccccc3c2)c1
solubility (mole fraction)
Settings	in acetic acid	in ethanol	in ethylene glycol	in isobutanol	in isopropanol	in methanol	in n-butanol	in n-octanol	in n-propanol	in propylene glycol
283.15 K	0.00186	0.000558	5.01e-05	0.000544	0.000365	0.000402	0.00082	0.00145	0.000679	0.000155
288.15 K	0.00249	0.000765	5.88e-05	0.000734	0.00054	0.0005	0.00115	0.00189	0.00104	0.000214
293.15 K	0.00307	0.000957	7.5e-05	0.000933	0.000731	0.000691	0.00154	0.00251	0.00136	0.000264
298.15 K	0.00359	0.00125	8.76e-05	0.00137	0.000965	0.000843	0.00207	0.00311	0.00171	0.000335
303.15 K	0.0045	0.00161	0.000107	0.00174	0.00125	0.00102	0.00264	0.004	0.00218	0.000413
308.15 K	0.00574	0.00196	0.000129	0.0025	0.00168	0.00119	0.00345	0.00526	0.00286	0.000542
313.15 K	0.00779	0.00241	0.000156	0.00316	0.00225	0.00149	0.00448	0.00708	0.00351	0.00068
318.15 K	0.00993	0.00287	0.000201	0.00409	0.00273	0.00181	0.00568	0.00896	0.00451	0.000785
323.15 K	0.0127	0.00365	0.000258	0.00544	0.00357	0.00224	0.0076	0.0115	0.00606	0.000953
328.15 K	0.0156	0.00448	0.00031	0.00705	0.00437	0.00267	0.0097	0.0148	0.00772	0.00125
